Entries after “also recorded” stand apart in the source; their conditions may differ.
Tests used:
thrombomodulin = assay: Thrombomodulin protein in human coronary artery smooth muscle cells (Western blot); type: cell-based; conditions: HCASMC, 48 h, FIG. 21B
Description: (§1) Human coronary artery smooth muscle cells (HCASM) were incubated with Vida-5 or Vida-11 at different concentrations for 48 h and then were solubilized in 50 al of SDS-PAGE sample buffer. The protein content in each sample was determined by the bicinchoninic acid protein assay. Samples were resolved by SDS-PAGE using a 4-12% NuPAGE gel, and proteins were electrophoretically transferred to polyvinylidene fluoride membrane for Western blotting. The membrane was blocked for 1 h at 25° C. with 5% nonfat dry milk in phosphate buffered saline Tween-20 (PBS-T) and then incubated with a mouse anti-thrombospondin-1 monoclonal antibody (2,000-fold dilution), or a mouse anti-TM monoclonal antibody (2,000-fold dilution) in PBS-T overnight at 4° C.
(§2) The membrane was washed with PBS-T and incubated with a horseradish peroxidase-labeled anti-mouse antibody for 1 h at 25° C. The membrane was then incubated with Amersham ECL Plus Western Blotting Detection Reagents. Specific bands were visualized by the Multiimage II of Alpha Innotech imaging system. Band intensity was quantified using Spot Denso.

thrombospondin-1 = assay: Thrombospondin-1 protein in human coronary artery smooth muscle cells (Western blot); type: cell-based; conditions: HCASMC, 48 h, FIG. 21A
Description: as §1, §2

For `C=C1[C@H](O)CC(=C/C=C2\CCCC3(C)C2CCC3[C@@H](C)OC[C@H](C)C(C)(C)O)C[C@H]1O` (stereo partly drawn) [Vida-5, (1R,3R)-5-((E)-2-((3αS,7αS)-1-((R)-1-((S)-3-hydroxy-2,3-dimethylbutoxy)ethyl)-7α-methyldihydro-1H-inden-4(2H,5H,6H, 7H, 7αH)-ylidene)ethylidene)-2-methylenecyclohexane-1,3-diol], which thrombomodulin protein expression (thrombomodulin) is on record?
Its thrombomodulin protein expression is “induce; also recorded: increased”.

And the thrombospondin-1 protein expression (thrombospondin-1)?
Its thrombospondin-1 protein expression is “suppress; also recorded: significantly reduced”.
